Assays:
[1] = test system: all stages of the greenhouse red spider mite (Tetranychus urticae); experiment: Tetranychus test (OP-resistant/dip treatment); assay type: in vivo
Method: Tetranychus test (OP-resistant/dip treatment)
(§1) Solvent: 7 parts by weight of dimethylformamide
(§2) Emulsifier: 1 part by weight of alkylaryl polyglycol ether
To produce a suitable preparation of active compound, 1 part by weight of active compound is mixed with the stated amount of solvent and emulsifier, and the concentrate is diluted with emulsifier-containing water to the desired concentration.
Bean plants (Phaseolus vulgaris) which are heavily infested by all stages of the greenhouse red spider mite (Tetranychus urticae) are dipped into a preparation of active compound of the desired concentration.
After the desired period of time, the effect in % is determined. 100% means that all spider mites have been killed, 0% means that none of the spider mites have been killed.

[2] = test system: caterpillars of the army worm (Spodoptera frugiperda); experiment: Spodoptera frugiperda test; assay type: in vivo; conditions: active compound concentration of 0.1%, after 7 days, dipped cabbage leaves
Method: Spodoptera frugiperda test
as §1, §2
To prepare a suitable preparation of active compound, 1 part by weight of active compound is mixed with the stated amount of solvent and emulsifier, and the concentrate is diluted with water to the desired concentration.
Cabbage leaves (Brassica oleracea) are treated by being dipped into the preparation of active compound of the desired concentration and populated with caterpillars of the army worm (Spodoptera frugiperda) while the leaves are still moist.
After the desired period of time, the kill in % is determined. 100% means that all caterpillars have been killed; 0% means that none of the caterpillars have been killed.

Lucilia cuprina larvae = experiment: Blowfly larvae test/development-inhibitory action; assay type: in vivo; conditions: active compound concentration of 100 ppm; 100% means that none of the flies have hatched
Method: Blowfly larvae test/development-inhibitory action
Test animals: Lucilia cuprina larvae
Solvent: Dimethylsulfoxide
20 mg of active compound are dissolved in 1 ml of dimethyl suiphoxide, and more dilute concentrations are prepared by dilution with dist. water.
Approximately 20 Lucilia cuprina larvae are introduced into a test tube which contains approximately 1 cm^3 of horse meat and 0.5 ml of the active compound preparation to be tested. After 24 and 48 hours, the efficacy of the preparation of active compound is determined. The test tubes are transferred into a beaker with sand-covered bottom. After a further 2 days, the test tubes are removed and the pupae are counted.
The effect of the preparation of active compound is assessed by the number of the flies which have hatched after 1.5 times the development time of an untreated control. 100% means that none of the flies have hatched; 0% means that all flies have hatched normally.

[3] = test system: mustard beetle larvae (Phaedon cochleariae); experiment: Phaedon larvae test; assay type: in vivo; conditions: active compound concentration of 0.1%, after 7 days, dipped cabbage leaves
Method: Phaedon larvae test Solvent: 7 parts by weight of dimethylfornamide Emulsifier: 1 part by weight of alkylaryl polyglycol ether To produce a suitable preparation of active compound, 1 part by weight of active compound is mixed with the stated amount of solvent and emulsifier, and the concentrate is diluted with water to the desired concentration. Cabbage leaves (Brassica oleracea) are treated by being dipped into the preparation of active compound of the desired concentration and populated with mustard beetle larvae (Phaedon cochleariae) while the leaves are still moist.

[4] = active compound concentration of 0.01%, after 7 days, dipped bean plants

| melting point | Compound | kill ([1]; 168 h) | kill [2] | efficacy (Lucilia cuprina larvae) | kill [3] | kill [1, 4] |
| --- | --- | --- | --- | --- | --- | --- |
|  | CCOC(=O)N1CC(c2ccc(-c3ccc(OC(F)(F)F)cc3)cc2)N=C1c1ccccc1Cl (stereo not drawn) [Example I-4, 2-(2-chlorophenyl)-1-ethoxycarbonyl-4-(4′-trifluormethoxy-4-biphenylyl)-4,5-dihydro-1H-imidazole] |  | 100% |  | 100% |  |
| 123 to 124 °C | N#CN1CC(c2ccc(-c3ccc(OC(F)(F)F)cc3)cc2)N=C1c1c(F)cccc1F (stereo not drawn) [Example I-5a, 1-cyano-4-(4′-trifluoromethoxy-4-biphenylyl)-2-(2,6-difluorophenyl)-4,5-dihydro-1H-imidazole] |  | 100% |  | 100% | 100% |
|  | N#CN1C(c2c(F)cccc2F)=NCC1c1ccc(-c2ccc(OC(F)(F)F)cc2)cc1 (stereo not drawn) [Example I-5b, 3-cyano-4-(4′-trifluoromethoxy-4-biphenylyl)-2-(2,6-difluorophenyl)-4,5-dihydro-3H-imidazole] |  | 100% |  | 100% | 100% |
|  | CCOCN1CC(c2ccc(-c3ccc(OC(F)(F)F)cc3)cc2)N=C1c1c(F)cccc1F (stereo not drawn) [Example I-6a, 1-ethoxymethyl-4-(4′-trifluoromethoxy-4-biphenylyl)-2-(2,6-difluorophenyl)-4,5-di-hydro-1H-imidazole] |  | 100% |  | 100% | 100% |
|  | CCOCN1C(c2c(F)cccc2F)=NCC1c1ccc(-c2ccc(OC(F)(F)F)cc2)cc1 (stereo not drawn) [Example I-6b, 3-ethoxymethyl-4-(4′-trifluoromethoxy-4-biphenylyl)-2-(2,6-difluorophenyl)-4,5-di-hydro-3H-imidazole] |  |  |  | 100% |  |
|  | CC(=O)N1CC(c2ccc(-c3ccc(OC(F)(F)F)cc3)cc2)N=C1c1c(F)cccc1F (stereo not drawn) [Example I-7a, 1-acetyl-4-(4′-trifluoromethoxy-4-biphenylyl)-2-(2,6-difluorophenyl)-4,5-dihydro-1H-imidazole] |  | 100% |  | 90% | 100% |
| 93 to 95 °C | NC(=S)N1CC(c2ccc(-c3ccc(OC(F)(F)F)cc3)cc2)N=C1c1c(F)cccc1F (stereo not drawn) [Example I-8, 4-(4′-trifluoromethoxy4-biphenylyl)-2-(2,6-difluorophenyl)-1-thiocarbamoyl-4,5-dihydro-1H-imidazole] |  | 100% |  | 100% | 95% |

| Compound | melting point | kill ([1]; 168 h) | kill [2] | efficacy (Lucilia cuprina larvae) | kill [3] | kill [1, 4] |
| --- | --- | --- | --- | --- | --- | --- |
| CCOC(=O)N1CC(c2ccc(-c3ccc(OC(F)(F)F)cc3)cc2)N=C1c1c(F)cccc1F (stereo not drawn) [Example I-3, 1-ethoxycarbonyl4-(4′-trifluoromethoxy-4-biphenylyl)-2-(2,6-difluoro-phenyl)-4,5-dihydro-1H-imidazole] | 105 to 107 °C | 100% | 100% | 100% |  |  |

Source: US6380237B1, “Diphenylimidazolines” (Bayer Aktiengesellschaft, priority 1998, dated 2002)
